Assay results reported in patent publication US9776995B2, “Bicyclic sulfonamide compounds as sodium channel inhibitors” (AMGEN INC., priority 2013, dated 2017).

The compounds below were run against Nav 1.7 (Homo sapiens (Human), UniProt Q15858) (assay: Nav 1.7 in vitro PX assay (PatchXpress whole cell voltage clamp)). Details: PatchXpress (PX).
Format: cell-based
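Note: holding potential set for 20 to 50% inactivation, sodium current evoked by a 20 ms step to −10 mV, peak current inhibition read after compound exposure, 3–5 cells per concentration.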

Chain of Nav 1.7 (Q15858 whole entry): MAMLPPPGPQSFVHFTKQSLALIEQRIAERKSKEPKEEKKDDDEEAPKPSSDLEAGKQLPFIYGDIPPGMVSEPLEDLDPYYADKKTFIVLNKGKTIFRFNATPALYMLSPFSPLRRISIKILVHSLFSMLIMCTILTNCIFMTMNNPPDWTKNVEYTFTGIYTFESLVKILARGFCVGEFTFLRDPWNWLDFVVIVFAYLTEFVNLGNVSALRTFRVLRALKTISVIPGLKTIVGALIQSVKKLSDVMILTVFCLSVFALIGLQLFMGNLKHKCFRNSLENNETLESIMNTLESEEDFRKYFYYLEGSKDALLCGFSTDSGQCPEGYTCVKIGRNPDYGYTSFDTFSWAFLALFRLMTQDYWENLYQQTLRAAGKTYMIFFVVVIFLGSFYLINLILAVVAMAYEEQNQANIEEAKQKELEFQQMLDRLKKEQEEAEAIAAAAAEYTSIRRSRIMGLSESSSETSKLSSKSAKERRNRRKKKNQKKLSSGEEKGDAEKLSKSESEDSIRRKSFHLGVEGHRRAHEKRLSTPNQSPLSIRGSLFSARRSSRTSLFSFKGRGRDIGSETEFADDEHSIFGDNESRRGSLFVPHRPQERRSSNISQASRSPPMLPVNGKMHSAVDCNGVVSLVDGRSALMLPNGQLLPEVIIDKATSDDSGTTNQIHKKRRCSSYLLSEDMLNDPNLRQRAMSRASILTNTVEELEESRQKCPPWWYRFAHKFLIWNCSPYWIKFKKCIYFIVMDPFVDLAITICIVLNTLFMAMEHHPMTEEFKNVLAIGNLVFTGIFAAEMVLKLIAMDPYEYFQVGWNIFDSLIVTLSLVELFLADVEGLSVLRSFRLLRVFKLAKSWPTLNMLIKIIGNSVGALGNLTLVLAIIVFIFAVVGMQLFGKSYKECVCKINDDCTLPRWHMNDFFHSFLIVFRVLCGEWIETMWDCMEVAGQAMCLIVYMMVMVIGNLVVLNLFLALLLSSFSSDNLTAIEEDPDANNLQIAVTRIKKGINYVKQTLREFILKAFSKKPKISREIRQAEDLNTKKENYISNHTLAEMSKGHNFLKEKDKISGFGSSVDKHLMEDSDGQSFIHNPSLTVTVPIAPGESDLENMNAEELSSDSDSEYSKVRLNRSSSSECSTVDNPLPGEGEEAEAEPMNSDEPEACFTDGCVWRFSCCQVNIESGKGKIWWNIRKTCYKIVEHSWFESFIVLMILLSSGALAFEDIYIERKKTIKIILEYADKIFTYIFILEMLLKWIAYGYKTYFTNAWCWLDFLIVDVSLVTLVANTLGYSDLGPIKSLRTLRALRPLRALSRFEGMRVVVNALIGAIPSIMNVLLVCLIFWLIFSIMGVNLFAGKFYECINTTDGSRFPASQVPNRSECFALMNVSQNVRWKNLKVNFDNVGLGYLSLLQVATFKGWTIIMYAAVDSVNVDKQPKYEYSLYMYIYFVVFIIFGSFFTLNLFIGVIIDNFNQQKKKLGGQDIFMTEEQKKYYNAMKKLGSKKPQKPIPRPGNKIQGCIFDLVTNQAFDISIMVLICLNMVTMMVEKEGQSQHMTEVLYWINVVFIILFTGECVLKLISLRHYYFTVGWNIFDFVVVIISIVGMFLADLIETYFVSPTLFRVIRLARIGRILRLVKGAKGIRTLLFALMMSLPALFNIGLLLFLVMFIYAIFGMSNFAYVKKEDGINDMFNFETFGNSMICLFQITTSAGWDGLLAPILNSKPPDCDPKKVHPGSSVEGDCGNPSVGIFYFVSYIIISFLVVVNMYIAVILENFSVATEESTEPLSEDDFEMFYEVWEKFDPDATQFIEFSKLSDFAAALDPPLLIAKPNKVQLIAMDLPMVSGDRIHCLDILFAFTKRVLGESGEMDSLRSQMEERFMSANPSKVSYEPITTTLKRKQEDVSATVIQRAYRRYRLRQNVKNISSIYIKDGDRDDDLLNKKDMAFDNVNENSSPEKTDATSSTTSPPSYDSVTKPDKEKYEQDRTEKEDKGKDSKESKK

| IC50 [nM] | SMILES |
| --- | --- |
| 222 | COc1cc(-c2cccc(F)c2)c(Cl)cc1-c1nccc2cc(S(=O)(=O)Nc3ncco3)ccc12 [Example 257, 1-(2-chloro-3′-fluoro-5-methoxy-4-biphenylyl)-N-1,3-oxazol-2-yl-6-isoquinolinesulfonamide] |
| 543 | COc1cc(C(F)(F)F)c(C2CC2)cc1-c1nccc2cc(S(=O)(=O)Nc3ccon3)ccc12 [Example 258, 1-(5-cyclopropyl-2-methoxy-4-(trifluoromethyl)phenyl)-N-3-isoxazolyl-6-isoquinolinesulfonamide] |
| 36.7 | COc1cc(-c2cc(C)cc(F)c2)c(C)cc1-c1ncnc2cc(S(=O)(=O)Nc3ccon3)ccc12 [Example 260, 4-(3′-fluoro-5-methoxy-2,5′-dimethyl-4-biphenylyl)-N-3-isoxazolyl-7-quinazolinesulfonamide] |
| 38.1 | COc1cc(-c2ccc(F)c(C)c2)c(C)cc1-c1ncnc2cc(S(=O)(=O)Nc3ccon3)ccc12 [Example 261, 4-(4′-fluoro-5-methoxy-2,3′-dimethyl-4-biphenylyl)-N-3-isoxazolyl-7-quinazolinesulfonamide] |
| 62.5 | COc1cc(-c2cc(C)c(C)cc2C)c(C)cc1-c1ncnc2cc(S(=O)(=O)Nc3ccon3)ccc12 [Example 262, N-3-isoxazolyl-4-(5-methoxy-2,2′,4′,5′-tetramethyl-4-biphenylyl)-7-quinazolinesulfonamide] |
| 102 | COc1cc(-c2cccc(C)c2)c(C)cc1-c1ncnc2cc(S(=O)(=O)Nc3ccon3)ccc12 [Example 263, N-3-isoxazolyl-4-(5-methoxy-2,3′-dimethyl-4-biphenylyl)-7-quinazolinesulfonamide] |
| 12.1 | COc1cc(-c2cccc(Cl)c2)c(C)cc1-c1ncnc2cc(S(=O)(=O)Nc3ccon3)ccc12 [Example 264, 4-(3′-chloro-5-methoxy-2-methyl-4-biphenylyl)-N-3-isoxazolyl-7-quinazolinesulfonamide] |
| 18.4 | COc1cc(-c2cccc(C(F)(F)F)c2)c(C)cc1-c1ncnc2cc(S(=O)(=O)Nc3ccon3)ccc12 [Example 265, N-3-isoxazolyl-4-(5-methoxy-2-methyl-3′-(trifluoromethyl)-4-biphenylyl)-7-quinazolinesulfonamide] |
| 18.1 | COc1ccc(Cl)cc1-c1cc(OC)c(-c2ncnc3cc(S(=O)(=O)Nc4ccon4)ccc23)cc1C [Example 266, 4-(5′-chloro-2′,5-dimethoxy-2-methyl-4-biphenylyl)-N-3-isoxazolyl-7-quinazolinesulfonamide] |
| 28.7 | COc1cc(-c2ccc(C)c(Cl)c2)c(C)cc1-c1ncnc2cc(S(=O)(=O)Nc3ccon3)ccc12 [Example 267, 4-(3′-chloro-5-methoxy-2,4′-dimethyl-4-biphenylyl)-N-3-isoxazolyl-7-quinazolinesulfonamide] |
| 23.9 | COc1cc(-c2cc(C)cc(Cl)c2)c(C)cc1-c1ncnc2cc(S(=O)(=O)Nc3ccon3)ccc12 [Example 268, 4-(3′-chloro-5-methoxy-2,5′-dimethyl-4-biphenylyl)-N-3-isoxazolyl-7-quinazolinesulfonamide] |
| 25.2 | COc1cc(-c2ccc(F)c(Cl)c2)c(C)cc1-c1ncnc2cc(S(=O)(=O)Nc3ccon3)ccc12 [Example 269, 4-(3′-chloro-4′-fluoro-5-methoxy-2-methyl-4-biphenylyl)-N-3-isoxazolyl-7-quinazolinesulfonamide] |
| 29.9 | COc1cc(-c2cc(F)cc(Cl)c2)c(C)cc1-c1ncnc2cc(S(=O)(=O)Nc3ccon3)ccc12 [Example 270, 4-(3′-chloro-5′-fluoro-5-methoxy-2-methyl-4-biphenylyl)-N-3-isoxazolyl-7-quinazolinesulfonamide] |
| 47.2 | COc1cc(-c2ccc(Cl)c(F)c2)c(C)cc1-c1ncnc2cc(S(=O)(=O)Nc3ccon3)ccc12 [Example 271, 4-(4′-chloro-3′-fluoro-5-methoxy-2-methyl-4-biphenylyl)-N-3-isoxazolyl-7-quinazolinesulfonamide] |
| 31.9 | COc1cc(-c2cc(F)cc(F)c2)c(C)cc1-c1nccc2cc(S(=O)(=O)Nc3ccon3)ccc12 [Example 272, 1-(3′,5′-difluoro-5-methoxy-2-methyl-4-biphenylyl)-N-3-isoxazolyl-6-isoquinolinesulfonamide] |
| 73.3 | COc1cc(-c2cc(C)cc(F)c2)c(C)cc1-c1nccc2cc(S(=O)(=O)Nc3ccon3)ccc12 [Example 273, 1-(3′-fluoro-5-methoxy-2,5′-dimethyl-4-biphenylyl)-N-3-isoxazolyl-6-isoquinolinesulfonamide] |
| 63.2 | COc1cc(-c2ccc(F)c(C)c2)c(C)cc1-c1nccc2cc(S(=O)(=O)Nc3ccon3)ccc12 [Example 274, 1-(4′-fluoro-5-methoxy-2,3′-dimethyl-4-biphenylyl)-N-3-isoxazolyl-6-isoquinolinesulfonamide] |
| 242 | COc1cc(-c2cc(C)c(C)cc2C)c(C)cc1-c1nccc2cc(S(=O)(=O)Nc3ccon3)ccc12 [Example 275, N-3-isoxazolyl-1-(5-methoxy-2,2′,4′,5′-tetramethyl-4-biphenylyl)-6-isoquinolinesulfonamide] |
| 169 | COc1cc(-c2cccc(C)c2)c(C)cc1-c1nccc2cc(S(=O)(=O)Nc3ccon3)ccc12 [Example 276, N-3-isoxazolyl-1-(5-methoxy-2,3′-dimethyl-4-biphenylyl)-6-isoquinolinesulfonamide] |
| 40 | COc1cc(-c2cccc(Cl)c2)c(C)cc1-c1nccc2cc(S(=O)(=O)Nc3ccon3)ccc12 [Example 277, 1-(3′-chloro-5-methoxy-2-methyl-4-biphenylyl)-N-3-isoxazolyl-6-isoquinolinesulfonamide] |

Same assay, conditions: in-vitro Nav 1.7 PX (PatchXpress)

| IC50 [nM] | SMILES |
| --- | --- |
| 63 | COc1cc(-c2cc(F)cnc2OC)c(C)cc1-c1nccc2cc(S(=O)(=O)Nc3ccon3)ccc12 [Example 279, 1-(4-(5-fluoro-2-methoxy-3-pyridinyl)-2-methoxy-5-methylphenyl)-N-3-isoxazolyl-6-isoquinolinesulfonamide] |
| 60.3 | COc1ccc(F)cc1-c1cc(OC)c(-c2nccc3cc(S(=O)(=O)Nc4ccon4)ccc23)cc1C [Example 280, 1-(5′-fluoro-2′,5-dimethoxy-2-methyl-4-biphenylyl)-N-3-isoxazolyl-6-isoquinolinesulfonamide] |
| 16.4 | COc1ccc(Cl)cc1-c1cc(OC)c(-c2nccc3cc(S(=O)(=O)Nc4ccon4)ccc23)cc1C [Example 281, 1-(5′-chloro-2′,5-dimethoxy-2-methyl-4-biphenylyl)-N-3-isoxazolyl-6-isoquinolinesulfonamide] |
| 98.6 | COc1cc(-c2ccc(C)c(Cl)c2)c(C)cc1-c1nccc2cc(S(=O)(=O)Nc3ccon3)ccc12 [Example 282, 1-(3′-chloro-5-methoxy-2,4′-dimethyl-4-biphenylyl)-N-3-isoxazolyl-6-isoquinolinesulfonamide] |
| 37.5 | COc1cc(-c2cc(C)cc(Cl)c2)c(C)cc1-c1nccc2cc(S(=O)(=O)Nc3ccon3)ccc12 [Example 283, 1-(3′-chloro-5-methoxy-2,5′-dimethyl-4-biphenylyl)-N-3-isoxazolyl-6-isoquinolinesulfonamide] |
| 22.8 | COc1cc(-c2ccc(F)c(Cl)c2)c(C)cc1-c1nccc2cc(S(=O)(=O)Nc3ccon3)ccc12 [Example 284, 1-(3′-chloro-4′-fluoro-5-methoxy-2-methyl-4-biphenylyl)-N-3-isoxazolyl-6-isoquinolinesulfonamide] |
